According to US20070212360A1, “Modulation of mitochondrial oxygen consumption for therapeutic purposes” (priority 2006, published 2007):

Tests used:
[1] = test system: HIF1 targets PDK1, Bnip3, and Bnip3L in RKO and Su.86 human tumor cells; experiment: Western blot of HIF1 target proteins in hypoxic tumor cells; format: cell-based; settings: RKO and Su.86 cells, 0.5% O2 24 h, 2 ng/ml echinomycin
Description: FIG. 7. Inhibition of HIF1 and PDK1 increases oxygen consumption in vitro and in vivo. (a) Western blots of extracts from RKO and Su.86 cells exposed to normoxia (N) or hypoxia (H) (0.5% O2) for 24 h in the presence or absence of 2 ng/ml echinomycin probed for the indicated proteins. (b) Oxygen consumption rates of RKO and RKOShHIF1α cells (left) and Su.86 cells (right) after 24 h treatment with normoxia or hypoxia (0.5% O2) with or without 2 ng/ml echinomycin. Data are normalized to normoxic samples. (c) Relative oxygen consumption of RKO cells treated with hypoxia (0.5% O2) for 24 h in the presence of increasing concentrations of echinomycin. (d) Oxygen consumption rates of freshly explanted tumor tissue from RKO (n=16) and RKOShHIF1α (n=8) xenografts. (e) Oxygen consumption rates of RKO and RKOShHIF1 tumors from mice treated with 0.12 mg/kg echinomycin ip 24 h prior (n=8), or 50 mg/kg DCA ip 4 h prior (n=8). […]
Western blots. In brief, cells were harvested directly in RIPA buffer containing protease inhibitors, protein concentrations were quantified (Pierce), 25-50 μg of total protein was electrophoresed on a reducing Tris-Tricine gel, and electroblotted to PVDF membrane. […] Primary antibodies were detected with species-specific secondary antibodies labeled with Alkaline Phosphatase (Vector labs) (1:3000) and visualized with ECF (Amersham) on a Storm 860 phosphoimager (Molecular Devices).

[2] = test system: PDK1 in wildtype and HIF1α knockout mouse embryo fibroblasts (MEFs); experiment: Western blot of PDK1 in hypoxic MEFs; format: cell-based; settings: 0.5% O2 24 h, 2 ng/ml
Description: FIG. 11. Inhibition of HIF1 increases oxygen consumption in vitro. (a) Western blot of wildtype and HIF1α knockout MEFs exposed normoxia (N) or hypoxia (H) (0.5% O2) for 24 hours in the presence or absence of 2 ng/ml echinomycin. (b) In vitro oxygen consumption of wildtype and HIF1α knockout MEFs (b) after exposure to 24 hours of normoxia or hypoxia (0.5% O2) in the presence or absence of 2 ng/ml echinomycin. Data are normalized to normoxic values. (*) indicate a significant difference relative to control (p<0.05).
Western blots. In brief, cells were harvested directly in RIPA buffer containing protease inhibitors, protein concentrations were quantified (Pierce), 25-50 μg of total protein was electrophoresed on a reducing Tris-Tricine gel, and electroblotted to PVDF membrane. Antibodies used were rabbit anti-PDK1 (Stressgen) (1:2000), murine anti-α tubulin (Research Diagnostics) (1:2000), and rabbit anti-Bnip3 and anti-Bnip3L as described previously by Papandreou et al. (2005) Cancer research 65, 3171-8. (1:500). Primary antibodies were detected with species-specific secondary antibodies labeled with Alkaline Phosphatase (Vector labs) (1:3000) and visualized with ECF (Amersham) on a Storm 860 phosphoimager (Molecular Devices).

[3] = test system: RKO and RKOShHIF1α tumors; experiment: Oxygen consumption of freshly explanted RKO tumor xenografts; format: in vivo, mouse; settings: 0.12 mg/kg echinomycin ip 24 h prior; vs PBS controls
Description: FIG. 7. Inhibition of HIF1 and PDK1 increases oxygen consumption in vitro and in vivo. (a) Western blots of extracts from RKO and Su.86 cells exposed to normoxia (N) or hypoxia (H) (0.5% O2) for 24 h in the presence or absence of 2 ng/ml echinomycin probed for the indicated proteins. (b) Oxygen consumption rates of RKO and RKOShHIF1α cells (left) and Su.86 cells (right) after 24 h treatment with normoxia or hypoxia (0.5% O2) with or without 2 ng/ml echinomycin. Data are normalized to normoxic samples. (c) Relative oxygen consumption of RKO cells treated with hypoxia (0.5% O2) for 24 h in the presence of increasing concentrations of echinomycin. (d) Oxygen consumption rates of freshly explanted tumor tissue from RKO (n=16) and RKOShHIF1α (n=8) xenografts. (e) Oxygen consumption rates of RKO and RKOShHIF1 tumors from mice treated with 0.12 mg/kg echinomycin ip 24 h prior (n=8), or 50 mg/kg DCA ip 4 h prior (n=8). Data is normalized to PBS treated controls (n=8-16). (*) indicate a significant difference relative to control (p<0.05).
Cell lines and tumor xenografts. […]
Oxygen consumption measurements. […] Oxygen consumption was measured in a 0.5 ml volume using an Oxytherm electrode unit (Hansatech, Norfolk, UK). […] Oxygen consumption was measured as above in a 1 ml volume and normalized to tissue weight.

[4] = test system: HIF1 responsive luciferase reporter in RKO cells; experiment: 5×HRE-luciferase reporter assay in vitro; format: cell-based, human; settings: 0.5% O2 24 h, increasing concentrations, dose dependent
Description: FIG. 8. Increasing oxygen consumption by inhibition of PDK activity increases tumor hypoxia. (a) Luciferase activity of wildtype and HIF1α knockdown RKO cells stably transfected with a HIF1 responsive luciferase reporter gene. Cells were exposed to 0.5% O2 for 24 hours in triplicate. Luminescence is normalized to normoxic HIF wildtype cells. (b) Luciferase activity of wildtype RKO HIF1 reporter cells exposed to 0.5% O2 for 24 hours in the presence of increasing concentrations of echinomycin. Data are normalized to the increase in signal observed in the absence of drug. (c) Bioluminescent imaging in vivo. Images show a representative animal bearing an RKO reporter tumor on the left flank and an RKOShHIF1α reporter tumor on the right flank as a function of time after ip injection of 50 mg/kg DCA. […] (d) Quantification of in vivo bioluminescence. […] The data represent the mean of three independent experiments, each comprising 5 RKO and 5 RKOShHIF1α reporter tumors.
Luciferase reporter assay. […] Cells were exposed to 0.5% O2 for 24 hr, and luciferase activity was measured in triplicate using a luciferase reporter gene assay kit (Roche) and a Monolight 2010 luminometer (Analytical Luminescence Laboratory). […]

CS[C@H]1SC[C@H]2C(=O)N(C)[C@@H](C(C)C)C(=O)OC[C@@H](NC(=O)c3cnc4ccccc4n3)C(=O)N[C@@H](C)C(=O)N(C)[C@@H]1C(=O)N(C)[C@@H](C(C)C)C(=O)OC[C@@H](NC(=O)c1cnc3ccccc3n1)C(=O)N[C@@H](C)C(=O)N2C [echinomycin]
hypoxic induction of PDK1, Bnip3, and Bnip3L (immunoblot) [1]: blocked
hypoxic expression of PDK1 in HIF1α deficient cells ([2]; HIF1α knockout MEFs): no effect
hypoxic PDK1 induction in wildtype MEFs ([2]; wildtype MEFs): blocked PDK1 induction
tumor oxygen consumption, RKO wildtype tumors [3]: significantly increased
tumor oxygen consumption, RKOShHIF1 tumors [3]: no effect
hypoxic induction of luciferase in RKO reporter cells in vitro [4]: completely inhibited
